Assay results taken from ChEMBL document CHEMBL1201862, “PubChem BioAssay data set” (2004).
Several values for one entry are separate records, joined by “and”; a condition that tells them apart may be missing. Identical values can stand only once.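 Cultured in 96-well plates, cells were exposed to test compound for 48 hours across five concentrations. The concentration for 50% growth inhibition is given as GI50.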 Activity calls are given as the source filed them. No stated cut-off is given here; in the data, active = GI50 up to about 1.1 µM and inactive = higher.

Experiments:
Experiment in all cases: DTP human tumour cell line panel, 48 h
MDA-MB-231 = test system: MDA-MB-231
UACC-62 = test system: UACC-62
PC-3 = test system: PC-3
SF-295 = test system: SF-295
M14 = test system: M14
SN12C = test system: SN12C
MDA-N = test system: MDA-N
SK-OV-3 = test system: SK-OV-3
RXF 393 = test system: RXF 393
SK-MEL-28 = test system: SK-MEL-28
NCI-H23 = test system: NCI-H23
786-0 = test system: 786-0
A549 = test system: A549
Malme-3M = test system: Malme-3M
MOLT-4 = test system: MOLT-4
SK-MEL-5 = test system: SK-MEL-5
OVCAR-8 = test system: OVCAR-8
TK-10 = test system: TK-10
CCRF-CEM = test system: CCRF-CEM
HCT-15 = test system: HCT-15
CAKI-1 = test system: CAKI-1
KM12 = test system: KM12
MCF7 = test system: MCF7
SW-620 = test system: SW-620
EKVX = test system: EKVX
SF-268 = test system: SF-268
HOP-62 = test system: HOP-62
IGROV-1 = test system: IGROV-1
RPMI-8226 = test system: RPMI-8226
SNB-75 = test system: SNB-75
SR = test system: SR
HCC 2998 = test system: HCC 2998
T47D = test system: T47D
A498 = test system: A498
UO-31 = test system: UO-31
Hs-578T = test system: Hs-578T
DU-145 = test system: DU-145
SF-539 = test system: SF-539
U-251 = test system: U-251
OVCAR-5 = test system: OVCAR-5
NCI-H522 = test system: NCI-H522
NCI-H226 = test system: NCI-H226
MDA-MB-435 = test system: MDA-MB-435
LOX IMVI = test system: LOX IMVI
HL-60 = test system: HL-60
NCI/ADR-RES = test system: NCI/ADR-RES
NCI-H460 = test system: NCI-H460
HOP-92 = test system: HOP-92
OVCAR-3 = test system: OVCAR-3
HT-29 = test system: HT-29
UACC-257 = test system: UACC-257
ACHN = test system: ACHN
COLO 205 = test system: COLO 205
HCT-116 = test system: HCT-116

CC1OC(c2ccccc2)=CC(OCc2ccccc2)[C@H]1OCc1ccccc1 (some centres undefined)
GI50 (MDA-MB-231): > 10 µM (inactive) | GI50 (UACC-62): > 10 µM (inactive) | GI50 (PC-3): > 10 µM (inactive) | GI50 (SF-295): > 10 µM (inactive) | GI50 (M14): > 10 µM (inactive) | GI50 (SN12C): > 10 µM (inactive) | GI50 (MDA-N): > 10 µM (inactive) | GI50 (SK-OV-3): > 10 µM (inactive) | GI50 (RXF 393): > 10 µM (inactive) | GI50 (SK-MEL-28): > 10 µM (inactive) | GI50 (NCI-H23): > 10 µM (inactive) | GI50 (786-0): > 10 µM (inactive) | GI50 (A549): > 10 µM (inactive) | GI50 (Malme-3M): > 10 µM (inactive) | GI50 (MOLT-4): > 10 µM (inactive) | GI50 (SK-MEL-5): > 10 µM (inactive) | GI50 (OVCAR-8): > 10 µM (inactive) | GI50 (TK-10): > 10 µM (inactive) | GI50 (CCRF-CEM): > 10 µM (inactive) | GI50 (HCT-15): > 10 µM | GI50 (CAKI-1): > 10 µM (inactive) | GI50 (KM12): > 10 µM (inactive) | GI50 (MCF7): > 10 µM (inactive) | GI50 (SW-620): > 10 µM (inactive) | GI50 (EKVX): > 10 µM (inactive) | GI50 (SF-268): > 10 µM (inactive) | GI50 (HOP-62): > 10 µM (inactive) | GI50 (IGROV-1): > 10 µM (inactive) | GI50 (RPMI-8226): > 10 µM (inactive) | GI50 (SNB-75): > 10 µM (inactive) | GI50 (SR): > 10 µM (inactive) | GI50 (HCC 2998): > 10 µM (inactive) | GI50 (T47D): > 10 µM (inactive)

COC(=O)/C=C/c1cc(OC)c2c(c1)C(C(=O)OC)C(c1ccc(O)c(OC)c1)O2 (centres undefined)
GI50 (A498): 8.95 µM (inactive) and 15.2 µM (inactive) and 8.2 µM (inactive) | GI50 (UO-31): 4.98 µM (inactive) and 4.86 µM (inactive) and 9.53 µM (inactive) | GI50 (MDA-MB-231): 2.49 µM (inactive) and 4.51 µM (inactive) and 3.15 µM (inactive) | GI50 (PC-3): 3.13 µM (inactive) and 2.84 µM (inactive) and 2.79 µM (inactive) | GI50 (Hs-578T): 2.69 µM (inactive) and 2.38 µM (inactive) and 1.67 µM (inactive) | GI50 (SF-295): 2.2 µM (inactive) and 2.36 µM (inactive) and 1.22 µM (inactive) | GI50 (M14): 4.05 µM (inactive) and 5.74 µM (inactive) and 3.53 µM (inactive) | GI50 (SK-OV-3): 5.71 µM (inactive) and 5.64 µM (inactive) and 3.26 µM (inactive) | GI50 (RXF 393): 1.88 µM (inactive) and 2.98 µM (inactive) and 2.43 µM (inactive) | GI50 (DU-145): 3.72 µM (inactive) and 3.18 µM (inactive) and 4.32 µM (inactive) | GI50 (NCI-H23): 5.08 µM (inactive) and 3.93 µM (inactive) and 5.18 µM (inactive) | GI50 (786-0): 3.44 µM (inactive) and 2.21 µM (inactive) and 4.33 µM (inactive) | GI50 (A549): 6.25 µM (inactive) and 5.69 µM (inactive) and 6 µM (inactive) | GI50 (Malme-3M): 4.58 µM (inactive) and 4.39 µM (inactive) and 2.74 µM (inactive) | GI50 (SK-MEL-5): 2.27 µM (inactive) and 2.57 µM (inactive) and 1.4 µM (inactive) | GI50 (SF-539): 2.69 µM (inactive) and 2.17 µM (inactive) and 1.82 µM (inactive) | GI50 (KM12): 2.83 µM (inactive) and 3.34 µM (inactive) and 2.13 µM (inactive) | GI50 (SF-268): 7.87 µM (inactive) and 8.04 µM (inactive) and 5.83 µM (inactive) | GI50 (U-251): 3.4 µM (inactive) and 3.29 µM (inactive) and 3.13 µM (inactive) | GI50 (SNB-75): 1.95 µM (inactive) and 1.51 µM (inactive) and 1.94 µM (inactive) | GI50 (T47D): 3.87 µM (inactive) and 7.14 µM (inactive) and 3.73 µM (inactive)

CCOC(=O)/C=C/C(=O)O/C=C/[N+](=O)[O-]
GI50 (A498): > 100 µM (inactive) | GI50 (UO-31): > 100 µM (inactive) | GI50 (OVCAR-5): > 100 µM (inactive) | GI50 (NCI-H522): > 100 µM (inactive) | GI50 (NCI-H226): > 100 µM (inactive) | GI50 (MDA-MB-231): > 100 µM (inactive) | GI50 (MDA-MB-435): > 100 µM (inactive) | GI50 (UACC-62): > 100 µM (inactive) | GI50 (Hs-578T): > 100 µM (inactive) | GI50 (LOX IMVI): > 100 µM (inactive) | GI50 (SF-295): > 100 µM (inactive) | GI50 (M14): > 100 µM (inactive) | GI50 (SN12C): > 100 µM (inactive) | GI50 (MDA-N): > 100 µM (inactive) | GI50 (SK-OV-3): > 100 µM (inactive) | GI50 (RXF 393): > 100 µM (inactive) | GI50 (DU-145): > 100 µM (inactive) | GI50 (NCI-H23): > 100 µM (inactive) | GI50 (HL-60): > 100 µM (inactive) | GI50 (786-0): > 100 µM (inactive) | GI50 (NCI/ADR-RES): > 100 µM (inactive) | GI50 (MOLT-4): > 100 µM (inactive) | GI50 (SK-MEL-5): > 100 µM (inactive) | GI50 (NCI-H460): > 100 µM (inactive) | GI50 (OVCAR-8): > 100 µM (inactive) | GI50 (TK-10): > 100 µM (inactive) | GI50 (CCRF-CEM): 4.54 µM (inactive) | GI50 (SF-539): > 100 µM (inactive) | GI50 (HCT-15): > 100 µM | GI50 (CAKI-1): 33.3 µM (inactive) | GI50 (KM12): > 100 µM (inactive) | GI50 (HOP-92): > 100 µM (inactive) | GI50 (OVCAR-3): > 100 µM (inactive) | GI50 (MCF7): > 100 µM (inactive) | GI50 (HT-29): > 100 µM (inactive) | GI50 (SW-620): > 100 µM (inactive) | GI50 (EKVX): > 100 µM (inactive) | GI50 (UACC-257): > 100 µM (inactive) | GI50 (ACHN): > 100 µM (inactive) | GI50 (COLO 205): > 100 µM (inactive) | GI50 (SF-268): > 100 µM (inactive) | GI50 (HOP-62): > 100 µM (inactive) | GI50 (U-251): > 100 µM (inactive) | GI50 (HCT-116): > 100 µM (inactive) | GI50 (IGROV-1): > 100 µM (inactive) | GI50 (RPMI-8226): > 100 µM (inactive) | GI50 (SNB-75): > 100 µM (inactive) | GI50 (SR): > 100 µM (inactive) | GI50 (HCC 2998): > 100 µM (inactive) | GI50 (T47D): > 100 µM (inactive)
